Assay results published in patent US20250108119A1, “NOVEL STEROID PAYLOADS, STEROID LINKERS, ADCs CONTAINING AND USE THEREOF” (IMMUNEXT, INC., priority 2021, published 2025).

Legend:
FKBP5 = FKBP5 transcription in peritoneal resident macrophages (PRM) and spleen cells after in vivo treatment; design: species or system hVISTA mice; details: linker payloads as anti-VISTA conjugates; for FKBP5 induction in splenic cells (conclusions): day 1, 7, 14
[1] = tested on: LPS stimulated human PBMCs; assay: LPS stimulated human PBMC, IL-1β and IL-6 ELISA; assay type: cell-based
How it was run: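 Human PBMC (1-2 healthy donors), 150,000 cells/well, treated with test agents at 1,000 nM down to 1 nM or 0.2 nM, in duplicate. LPS at 1 ng/ml added immediately after free payload or 4 h after conjugates; IL-1β and IL-6 in supernatants measured by ELISA.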

[2] = tested on: peritoneal resident macrophages (PRM); assay: In vivo treatment/ex vivo PRM activation, TNFα and IL-6 in supernatant; design: species or system hVISTA mice; details: for controlling cytokine response in PRM when dosed 14 days early (conclusions) / potency in PRM cytokine model when dosed 7 days early (conclusions): linker/payloads as anti-VISTA conjugates; for preventing ex vivo induction of TNFα and IL-6 in PRM: Experiment 9: linker payloads as conjugates, 7 days post 0.2 mg/Kg of GC payload, supernatant 24h
Experimental: Based thereon we developed a model to allow us to evaluate long-term anti-inflammatory impact of ADC on specific target populations, such as PRMs. […] In the absence of GC treatment, after 2h PRMs become highly activated as shown by increases in cytokine production. […] The objective of these studies was to evaluate the efficacy and pharmacodynamic range of INX human VISTA antibodies conjugated to a glucocorticoid payload as compared to free Dex.
After euthanasia, mice were injected in the peritoneal cavity with 7 ml of PBS/0.5% BSA/2 mM EDTA. After a brief massage of the peritoneum, a small incision was performed and the peritoneal lavage collected. PRM were isolated using negative selection (Miltenyi kit, ref 130-110-434). Spleen were dissected and dissociated mechanically; monocytes were isolated using […] (Stem Cell, EasySep™ Mouse CD11b Positive Selection Kit II).
PRMs were resuspended in RPMI 1640 with 10% FBS, 10 mM Hepes, Penicillin/Streptomycin and glutamine and 100,000 cells were plated per well in a 96-well tissue culture plate. Supernatants were collected at 2 and 24h post plating and stored at −80° C. […]
• BioLegend (cat #430904) ELISA MAX Deluxe Set Mouse TNF-α • BioLegend (cat #431304) ELISA MAX Deluxe Set Mouse IL-6
ELISAs were conducted following the manufacturer's included protocol.

Row | Structure (SMILES) | FKBP5 induction when dosed 14 days early (conclusions) (FKBP5) | FKBP5 induction in splenic cells (conclusions) (FKBP5) | potency of conjugated linker payloads over INX J (conclusions) [1] | controlling cytokine response in PRM when dosed 14 days early (conclusions) [2] | preventing ex vivo induction of TNFα and IL-6 in PRM [2] | potency in PRM cytokine model when dosed 7 days early (conclusions) [2]
1 | C[C@]12C=CC(=O)C=C1CC[C@@H]1[C@@H]2[C@@H](O)C[C@@]2(C)[C@H]1C[C@H]1O[C@@H](c3ccc(OC4CC5(CC(NC(=O)[C@H](CCC(=O)O)NC(=O)CNC(=O)CBr)C5)C4)cc3)O[C@]12C(=O)CO (stereo partly drawn) [INX A4, (S)-4-(2-(2-bromoacetamido)acetamido)-5-((6-(4-((6aR,6bS,7S,8aS,8bS,10R,11aR,12aS,12bS)-7-hydroxy-8b-(2-hydroxyacetyl)-6a,8a-dimethyl-4-oxo-2,4,6a,6b,7,8,8a,8b,11a,12,12a,12b-dodecahydro-1H-naphtho[2′,1′:4,5]indeno[1,2-d][1,3]dioxol-10-yl)phenoxy)spiro[3.3]heptan-2-yl)amino)-5-oxopentanoic acid] | still display significant potency when dosed 14 days early in regard to FKBP5 induction | only demonstrate significant induction at day 1, and 7 | enhanced potency |  |  | 
2 | C[C@]12C=CC(=O)C=C1CC[C@@H]1[C@@H]2[C@@H](O)C[C@@]2(C)[C@H]1C[C@H]1O[C@@H](c3ccc(OC4CC5(CC(NC(=O)[C@H](CCC(=O)O)NC(=O)CNC(=O)CBr)C5)C4)cc3F)O[C@]12C(=O)CO (stereo partly drawn) [INX A5, (S)-4-(2-(2-bromoacetamido)acetamido)-5-((6-(3-fluoro-4-((6aR,6bS,7S,8aS,8bS,10R,11aR,12aS,12bS)-7-hydroxy-8b-(2-hydroxyacetyl)-6a,8a-dimethyl-4-oxo-2,4,6a,6b,7,8,8a,8b,11a,12,12a,12b-dodecahydro-1H-naphtho[2′,1′:4,5]indeno[1,2-d][1,3]dioxol-10-yl)phenoxy)spiro[3.3]heptan-2-yl)amino)-5-oxopentanoic acid] | still display significant potency when dosed 14 days early in regard to FKBP5 induction |  | enhanced potency | significant potency in controlling cytokine response in PRM when dosed 14 days early |  | 
3 | C[C@]12C=CC(=O)C=C1CC[C@@H]1[C@@H]2[C@@H](O)C[C@@]2(C)[C@H]1C[C@H]1O[C@@H](c3ccc(CC4CC5(C4)CC(NC(=O)[C@H](CC(N)=O)NC(=O)CNC(=O)CBr)C5)cc3)O[C@]12C(=O)CO (stereo partly drawn) [INX A11, (S)-2-(2-(2-bromoacetamido)acetamido)-N1-(6-(4-((6aR,6bS,7S,8aS,8bS,10R,11aR,12aS,12bS)-7-hydroxy-8b-(2-hydroxyacetyl)-6a,8a-dimethyl-4-oxo-2,4,6a,6b,7,8,8a,8b,11a,12,12a,12b-dodecahydro-1H-naphtho[2′,1′:4,5]indeno[1,2-d][1,3]dioxol-10-yl)benzyl)spiro[3.3]heptan-2-yl) succinamide] | still display significant potency when dosed 14 days early in regard to FKBP5 induction |  | enhanced potency | significant potency in controlling cytokine response in PRM when dosed 14 days early |  | 
4 | C[C@]12C=CC(=O)C=C1CC[C@@H]1[C@@H]2[C@@H](O)C[C@@]2(C)[C@H]1C[C@H]1O[C@@H](c3ccc(Cc4cccc(NC(=O)[C@H](CCC(=O)O)NC(=O)CNC(=O)CBr)c4)cc3)O[C@]12C(=O)COP(=O)(O)O [INX L] |  | only demonstrate significant induction at day 1, and 7 |  | significant potency in controlling cytokine response in PRM when dosed 14 days early |  | 
5 | C[C@]12C=CC(=O)C=C1CC[C@@H]1[C@@H]2[C@@H](O)C[C@@]2(C)[C@H]1C[C@H]1O[C@@H](C34CC(Cc5cccc(NC(=O)[C@H](CCC(=O)O)NC(=O)CNC(=O)CBr)c5)(C3)C4)O[C@]12C(=O)CO [INX O, (S)-4-(2-(2-bromoacetamido)acetamido)-5-((3-((3-((6aR,6bS,7S,8aS,8bS,10R,11aR,12aS,12bS)-7-hydroxy-8b-(2-hydroxyacetyl)-6a,8a-dimethyl-4-oxo-2,4,6a,6b,7,8,8a,8b,11a,12,12a,12b-dodecahydro-1H-naphtho[2′,1′:4,5]indeno[1,2-d][1,3]dioxol-10-yl)bicyclo[1.1.1]pentan-1-yl)methyl)phenyl)amino)-5-oxopentanoic acid] |  |  |  |  | little and non-significant impact on the PRM cytokine response | very limited and non-significant potency when conjugated to INX201
6 | C[C@H](NC(=O)CBr)C(=O)N[C@@H](C)C(=O)NC12CC(Cc3ccc([C@@H]4O[C@@H]5C[C@H]6[C@@H]7CCC8=CC(=O)C=C[C@]8(C)[C@H]7[C@@H](O)C[C@]6(C)[C@]5(C(=O)CO)O4)cc3)(C1)C2 [INX R, (S)-2-(2-bromoacetamido)-N—((S)-1-((3-(4-((6aR,6bS,7S,8aS,8bS,10R,11aR, 12aS,12bS)-7-hydroxy-8b-(2-hydroxyacetyl)-6a,8a-dimethyl-4-oxo-2,4,6a,6b,7,8,8a,8b,11a,12,12a,12b-dodecahydro-1H-naphtho[2′,1′:4,5]indeno[1,2-d][1,3]dioxol-10-yl)benzyl)bicyclo[1.1.1]pentan-1-yl)amino)-1-oxopropan-2-yl) propanamide] |  |  |  |  |  | show similar potency when dosed 7 days early
7 | C[C@]12C=CC(=O)C=C1[C@@H](F)C[C@H]1[C@@H]3C[C@H]4O[C@@H](c5ccc(CC67CC(NC(=O)[C@H](CCC(=O)O)NC(=O)CNC(=O)CBr)(C6)C7)cc5)O[C@@]4(C(=O)CO)[C@@]3(C)C[C@H](O)[C@@]12F [INX S, (S)-4-(2-(2-bromoacetamido)acetamido)-5-((3-(4-((2S,6aS,6bR,7S,8aS,8bS, 10R,11aR,12aS,12bS)-2,6b-difluoro-7-hydroxy-8b-(2-hydroxyacetyl)-6a,8a-dimethyl-4-oxo-2,4,6a,6b,7,8,8a,8b,11a,12,12a,12b-dodecahydro-1H-naphtho[2′,1′:4,5]indeno[1,2-d][1,3]dioxol-10-yl)benzyl)bicyclo[1.1.1]pentan-1-yl)amino)-5-oxopentanoic acid] | still display significant potency when dosed 14 days early in regard to FKBP5 induction | Significant FKBP5 induction is seen at day 1, 7, and 14 in splenic cells |  | significant potency in controlling cytokine response in PRM when dosed 14 days early | remarkable long-term potency in controlling cytokine responses | remarkably more potent than payloads INX P and INX R when dosed 7 days early
8 | C[C@]12C=CC(=O)C=C1CC[C@@H]1[C@@H]2[C@@H](O)C[C@@]2(C)[C@H]1C[C@H]1O[C@@H](c3ccc(CC45CC(NC(=O)[C@H](CCC(=O)O)NC(=O)CNC(=O)CBr)(C4)C5)cc3)O[C@]12C(=O)COP(=O)(O)O [INX T, (S)-4-(2-(2-bromoacetamido)acetamido)-5-((3-(4-((6aR,6bS,7S,8aS,8bS,10R,11aR,12aS,12bS)-7-hydroxy-6a,8a-dimethyl-4-oxo-8b-(2-(phosphonooxy)acetyl)-2,4,6a,6b,7,8,8a,8b,11a,12,12a,12b-dodecahydro-1H-naphtho[2′,1′:4,5]indeno[1,2-d][1,3]dioxol-10-yl)benzyl)bicyclo[1.1.1]pentan-1-yl)amino)-5-oxopentanoic acid] | still display significant potency when dosed 14 days early in regard to FKBP5 induction | Significant FKBP5 induction is seen at day 1, 7, and 14 in splenic cells |  | significant potency in controlling cytokine response in PRM when dosed 14 days early |  | 
9 | C[C@]12C=CC(=O)C=C1CC[C@@H]1[C@@H]2[C@@H](O)C[C@@]2(C)[C@H]1C[C@H]1O[C@@H](c3ccc(CC45CC(NC(=O)[C@H](CCCCN)NC(=O)CNC(=O)CBr)(C4)C5)cc3)O[C@]12C(=O)CO [INX W, (S)-6-amino-2-(2-(2-bromoacetamido)acetamido)-N-(3-(4-((6aR,6bS,7S,8aS,8bS,10R,11aR,12aS,12bS)-7-hydroxy-8b-(2-hydroxyacetyl)-6a,8a-dimethyl-4-oxo-2,4,6a,6b,7,8,8a,8b,11a,12,12a,12b-dodecahydro-1H-naphtho[2′,1′:4,5]indeno[1,2-d][1,3]dioxol-10-yl)benzyl)bicycle[1.1.1]pentan-1-yl) hexanamide] | still display significant potency when dosed 14 days early in regard to FKBP5 induction |  |  |  | remarkable long-term potency in controlling cytokine responses | remarkably more potent than payloads INX P and INX R when dosed 7 days early
